In series [1] the target is T1, M1 (muscarinic acetylcholine receptor M1) (Homo sapiens, UniProt P11229).
T1 construct: purchased Eurofins Cerep SafetyScreen44
T1 sequence (P11229 1-460): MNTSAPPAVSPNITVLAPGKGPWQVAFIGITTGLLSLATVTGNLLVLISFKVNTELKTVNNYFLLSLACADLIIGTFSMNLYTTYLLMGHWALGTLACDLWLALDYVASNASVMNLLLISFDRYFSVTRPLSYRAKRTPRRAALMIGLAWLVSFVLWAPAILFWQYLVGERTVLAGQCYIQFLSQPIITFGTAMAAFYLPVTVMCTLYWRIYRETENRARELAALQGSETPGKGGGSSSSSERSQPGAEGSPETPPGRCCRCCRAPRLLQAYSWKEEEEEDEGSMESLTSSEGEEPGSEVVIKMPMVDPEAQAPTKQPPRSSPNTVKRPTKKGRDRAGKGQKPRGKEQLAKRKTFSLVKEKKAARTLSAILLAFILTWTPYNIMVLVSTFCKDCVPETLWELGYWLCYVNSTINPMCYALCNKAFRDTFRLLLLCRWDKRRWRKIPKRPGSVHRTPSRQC
As to the kind of experiment: SafetyScreen44: M1. It is filed as binding.

Series [2] addresses T2, M2 (muscarinic acetylcholine receptor M2) (Homo sapiens, UniProt P08172).
T2 construct: purchased Eurofins Cerep SafetyScreen44
T2 sequence (P08172 1-466): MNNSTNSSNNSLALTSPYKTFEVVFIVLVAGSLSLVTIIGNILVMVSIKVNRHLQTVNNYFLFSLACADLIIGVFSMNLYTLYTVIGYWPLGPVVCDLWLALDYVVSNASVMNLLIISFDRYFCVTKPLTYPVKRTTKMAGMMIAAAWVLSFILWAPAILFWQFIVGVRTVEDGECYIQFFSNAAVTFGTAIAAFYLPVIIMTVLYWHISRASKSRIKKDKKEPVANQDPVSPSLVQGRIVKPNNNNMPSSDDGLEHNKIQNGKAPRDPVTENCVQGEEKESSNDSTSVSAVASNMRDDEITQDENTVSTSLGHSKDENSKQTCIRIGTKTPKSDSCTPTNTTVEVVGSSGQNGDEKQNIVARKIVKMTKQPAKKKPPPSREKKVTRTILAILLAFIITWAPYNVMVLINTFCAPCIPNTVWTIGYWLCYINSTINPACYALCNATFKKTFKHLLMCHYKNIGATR
Briefly: SafetyScreen44: M2. It is filed as binding.

For series [3], the target named is T3, V1a (vasopressin receptor 1A) (Homo sapiens, UniProt P37288).
T3 construct: purchased Eurofins Cerep SafetyScreen44
Briefly: SafetyScreen44: V1a. The series is classed as binding.

For series [4], the target named is T4, Dopamine transporter (Homo sapiens, UniProt Q01959).
T4 construct: purchased Eurofins Cerep SafetyScreen44
As to the kind of experiment: SafetyScreen44: dopamine transporter. The series is classed as binding.

Series [5] addresses T5, COX1 (Homo sapiens, UniProt P23219).
T5 construct: purchased Eurofins Cerep SafetyScreen44
As to the kind of experiment: SafetyScreen44: COX1. The series is classed as biochemical.

In series [6] the target is T6, acetylcholinesterase (Homo sapiens, UniProt P22303).
T6 construct: purchased Eurofins Cerep SafetyScreen44
Briefly: SafetyScreen44: acetylcholinesterase. It is filed as biochemical.

The nature of series [7]: Nonclinical tissue distribution in monkeys. The series is classed as in vivo, monkey. To be noted: variety of tissues (e.g. colon, ileum, and skin), nonclinical data.

The structures appear in SMILES notation. Where two headings read alike, the source gives them in different places.

T4 sequence (Q01959 whole entry): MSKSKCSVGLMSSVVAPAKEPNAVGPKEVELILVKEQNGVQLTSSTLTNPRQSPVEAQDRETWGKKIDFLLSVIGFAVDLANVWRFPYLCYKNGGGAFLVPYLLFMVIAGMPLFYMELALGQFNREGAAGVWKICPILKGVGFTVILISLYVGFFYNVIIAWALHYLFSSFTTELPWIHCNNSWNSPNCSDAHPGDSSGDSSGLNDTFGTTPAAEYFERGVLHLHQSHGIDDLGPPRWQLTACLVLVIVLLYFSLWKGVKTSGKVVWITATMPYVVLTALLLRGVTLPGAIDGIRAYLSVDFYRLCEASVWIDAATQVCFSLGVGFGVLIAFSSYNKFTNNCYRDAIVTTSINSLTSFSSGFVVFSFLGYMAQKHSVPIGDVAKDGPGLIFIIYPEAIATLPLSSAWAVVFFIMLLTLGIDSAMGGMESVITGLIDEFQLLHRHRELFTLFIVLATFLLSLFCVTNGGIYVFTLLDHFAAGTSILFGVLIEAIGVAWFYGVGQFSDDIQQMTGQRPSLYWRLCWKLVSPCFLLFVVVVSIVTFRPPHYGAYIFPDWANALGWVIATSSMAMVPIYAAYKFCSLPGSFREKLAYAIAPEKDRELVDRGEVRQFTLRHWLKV
T3 sequence (P37288 whole entry): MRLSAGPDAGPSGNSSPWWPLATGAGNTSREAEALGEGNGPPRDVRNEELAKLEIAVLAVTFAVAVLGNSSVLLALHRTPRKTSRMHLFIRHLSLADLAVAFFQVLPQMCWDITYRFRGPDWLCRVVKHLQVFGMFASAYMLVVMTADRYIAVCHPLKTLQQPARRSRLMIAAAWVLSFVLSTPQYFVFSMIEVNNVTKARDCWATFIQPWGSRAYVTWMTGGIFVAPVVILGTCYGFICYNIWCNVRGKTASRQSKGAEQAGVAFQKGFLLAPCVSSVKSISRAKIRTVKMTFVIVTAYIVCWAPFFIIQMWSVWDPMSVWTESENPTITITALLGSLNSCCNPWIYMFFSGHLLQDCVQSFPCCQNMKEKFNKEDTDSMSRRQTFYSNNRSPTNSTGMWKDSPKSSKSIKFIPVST
T5 sequence (P23219 24-599): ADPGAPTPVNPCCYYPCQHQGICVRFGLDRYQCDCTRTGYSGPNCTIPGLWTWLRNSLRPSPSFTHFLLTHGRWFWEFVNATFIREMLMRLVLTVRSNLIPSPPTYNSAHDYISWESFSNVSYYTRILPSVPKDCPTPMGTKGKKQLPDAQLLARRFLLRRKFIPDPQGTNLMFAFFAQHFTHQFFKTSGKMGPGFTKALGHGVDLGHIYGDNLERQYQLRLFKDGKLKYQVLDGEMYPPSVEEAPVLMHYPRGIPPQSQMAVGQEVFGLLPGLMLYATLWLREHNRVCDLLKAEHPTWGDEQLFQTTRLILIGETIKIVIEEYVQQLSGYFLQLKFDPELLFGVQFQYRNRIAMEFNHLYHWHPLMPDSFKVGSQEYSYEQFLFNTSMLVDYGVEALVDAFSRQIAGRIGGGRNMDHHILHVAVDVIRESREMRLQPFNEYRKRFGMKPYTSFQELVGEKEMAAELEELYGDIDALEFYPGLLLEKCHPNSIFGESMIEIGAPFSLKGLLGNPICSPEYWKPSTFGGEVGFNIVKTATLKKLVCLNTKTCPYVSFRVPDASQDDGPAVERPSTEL
T6 sequence (P22303 32-614): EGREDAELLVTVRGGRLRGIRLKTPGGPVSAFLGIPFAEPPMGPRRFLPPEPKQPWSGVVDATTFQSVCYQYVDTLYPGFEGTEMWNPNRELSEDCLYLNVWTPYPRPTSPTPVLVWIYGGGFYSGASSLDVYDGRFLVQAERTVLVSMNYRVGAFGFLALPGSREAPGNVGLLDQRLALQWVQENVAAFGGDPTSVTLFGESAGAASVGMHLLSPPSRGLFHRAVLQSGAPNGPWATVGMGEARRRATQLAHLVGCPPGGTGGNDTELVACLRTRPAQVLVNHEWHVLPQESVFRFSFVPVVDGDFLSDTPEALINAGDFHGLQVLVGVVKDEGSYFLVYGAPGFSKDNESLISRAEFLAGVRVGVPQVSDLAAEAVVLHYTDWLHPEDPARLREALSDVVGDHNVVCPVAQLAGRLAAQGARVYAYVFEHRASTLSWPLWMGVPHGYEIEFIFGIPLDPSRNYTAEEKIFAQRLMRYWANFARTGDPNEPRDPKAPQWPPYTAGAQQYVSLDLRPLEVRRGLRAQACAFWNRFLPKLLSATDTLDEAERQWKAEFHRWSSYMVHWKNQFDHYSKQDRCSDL

On to `CC(=O)NCCCC[C@@H]1NC(=O)[C@H](Cc2c[nH]c3c(C)cccc23)NC(=O)[C@H]([C@@H](C)O)NC(=O)[C@H](CC(N)=O)NC(=O)[C@@H](NC(C)=O)C(C)(C)SSC(C)(C)[C@@H](C(=O)N[C@@H](Cc2ccc(OCCN)cc2)C(=O)N[C@@H](Cc2ccc3ccccc3c2)C(=O)NC2(C(=O)N[C@@H](CCC(=O)O)C(=O)N[C@@H](CC(N)=O)C(=O)N[C@@H](Cc3cccnc3)C(=O)N(C)CC(N)=O)CCOCC2)NC1=O` [JNJ-77242113, S^3,1,S^3,6-cyclo[N-acetyl-3-sulfanyl-L-valyl-L-asparaginyl-L-threonyl-7-methyl-L-tryptophyl-N^6-acetyl-L-lysyl-3-sulfanyl-L-valyl-O-(2-aminoethyl)-L-tyrosyl-3-(naphthalen-2-yl)-L-alanyl-4-aminooxan-4-carbonyl-L-α-glutamyl-L-asparaginyl-3-(pyridin-3-yl)-L-alanyl-N^2-methylglycinamide]], for which the inhibition at 10 µM was -4.1% in series [1] (1st run, read-out: Percent inhibition of control ligand binding, M1, 1st run); 3.3% in series [1] (2nd run, read-out: Percent inhibition of control ligand binding, M1, 2nd run); -0.4% in series [1] (mean of 2 runs, read-out: Percent inhibition of control ligand binding, M1, Mean); 0.3% in series [2] (1st run, read-out: Percent inhibition of control ligand binding, M2, 1st run); 2% in series [2] (2nd run, read-out: Percent inhibition of control ligand binding, M2, 2nd run); 1.2% in series [2] (mean of 2 runs, read-out: Percent inhibition of control ligand binding, M2, Mean). The inhibition at 10 µM in series [3] (1st run, read-out: Percent inhibition of control ligand binding, V1a, 1st run) is 4.8%; in series [3] (2nd run, read-out: Percent inhibition of control ligand binding, V1a, 2nd run), 6.4%; in series [3] (mean of 2 runs, read-out: Percent inhibition of control ligand binding, V1a, Mean) it was 5.6%; in series [4] (1st run, read-out: Percent inhibition of control ligand binding, Dopamine transporter, 1st run), -3.6%; in series [4] (2nd run, read-out: Percent inhibition of control ligand binding, Dopamine transporter, 2nd run) it was -4.4%; in series [4] (mean of 2 runs, read-out: Percent inhibition of control ligand binding, Dopamine transporter, Mean) it was -4%. In addition, the inhibition at 10 µM in series [5] (1st run, read-out: Percent inhibition of control ligand binding, COX1, 1st run) was -18.8%; in series [5] (2nd run, read-out: Percent inhibition of control ligand binding, COX1, 2nd run), -37.6%; in series [5] (mean of 2 runs, read-out: Percent inhibition of control ligand binding, COX1, Mean), -28.2%; in series [6] (1st run, read-out: Percent inhibition of control ligand binding, acetylcholinesterase, 1st run), 9.8%; in series [6] (2nd run, read-out: Percent inhibition of control ligand binding, acetylcholinesterase, 2nd run), 2.2%; in series [6] (mean of 2 runs, read-out: Percent inhibition of control ligand binding, acetylcholinesterase, Mean), 6%. Moreover, the “Tissue distribution (in words)” value in series [7] is on record as “distributed freely”.
